First: ClCc1ccc(Cl)nc1Cl
Second: CC(=O)c1ccc(Cl)cn1
The melting point of the first is higher: 115 to 130 °C for the first, 58 to 65 °C for the second.

Going from `CCN(Cc1ccccc1OCc1ccccc1)c1ccc(C(=O)O)c(F)c1` to `O=[N+]([O-])c1c(Br)nn(Cc2ccccc2)c1NCc1ccccc1`, the melting point falls from 154 °C to 103 °C.

Compared with `O=C1OC(c2ccccc2)=CC1=Cc1cccs1`, `Cc1cc(-c2cc(CBr)c(=O)n(Cc3ccccc3Cl)n2)ccc1F` is lower in melting point: 141 °C for the first, 113 to 115 °C for the second.

First: COc1cc(OC)nc(CC(=O)O)n1
Second: COc1ccc(-n2ncc(C(=O)O)c2Cl)cc1
The melting point of the first is lower: 175 to 177 °C for the first, 241 to 242 °C for the second.

`Cc1cc(C(=O)N2Cc3ccc(C(=O)N(C)C[C@H](O)[C@H]4OC(=O)O[C@@H]4[C@H](O)CO)n3Cc3ccccc32)ccc1C1=CCCCC1` and `COc1cc(C(=O)N2Cc3ccc(C(=O)NCc4ccccc4)n3Cc3ccccc32)ccc1-c1ccccc1C` cannot be ordered by melting point: 166 to 175 °C for the first, 170 to 174 °C for the second.

First: Cc1cc(Br)ccc1C(=O)N=CN(C)C
Second: CCOC(=O)c1ccc(S(C)(=O)=O)c(-c2cc(C)no2)c1C
The melting point of the first is higher: 87 to 89 °C for the first, 83 to 86 °C for the second.

Compared with `O=C1C=C(Oc2ccc(C(F)(F)F)cc2)C(O)O1` (stereo not given), `O=C1CCCCN1[C@@H]1c2cc(C(F)(F)F)ccc2OC(CF)(CF)[C@H]1O` (relative stereo) is higher in melting point: 87 to 89 °C for the first, 184 to 187 °C for the second.

Compared with `O=[N+]([O-])c1ccc(OC2CCCC2)cc1NC1CCCCC1`, `CNC1CC=C(c2c[nH]c3cc([N+](=O)[O-])ccc23)CC1` (stereo not given) is higher in melting point: 98 °C for the first, 170 to 172 °C for the second.

First: CCN(CC)C(=O)Cc1ccc(C(=O)c2ccc(Cl)cc2)n1C
Second: CN1C(=O)N(c2ccc(Cl)cc2)S(=O)(=O)c2ccc(O)cc21
The melting point of the first is lower: 82 to 85 °C for the first, greater than 250 °C for the second.

First: Cc1ccnc(-c2nc(=O)c3ccc(Cl)cc3s2)c1
Second: Cc1cc(-c2cc(N)n3nc(-c4ccco4)nc3c2)ccn1
The melting point of the first is higher: 246 to 247 °C for the first, 100 to 101 °C for the second.

First: CCOC(=O)/C=C/c1ccc(OCCOC)c(C)c1OCc1ccc(Cl)cc1Cl
Second: CCOC(=O)C=Cc1cc([N+](=O)[O-])ccc1Cl
The melting point of the first is lower: 92 to 92.5 °C for the first, 138 to 140 °C for the second.

Compared with `CC1(C)CC(N(C=O)CCc2ccccc2)CC(C)(C)N1`, `Cc1cc2c(c(C)c1NCc1ccccc1)CC(C)(C)O2` is lower in melting point: 86 °C for the first, 80 to 81 °C for the second.

Compared with `CCOC(=O)C(=O)Nc1nc(CN2CCN(C(c3ccccc3)c3ccccc3)CC2)cs1`, `CC(C(=O)N1c2ccccc2C(=O)Nc2cccnc21)N1CCN(C)CC1` (stereo not given) is higher in melting point: 125 to 128 °C for the first, 223 to 224 °C for the second.

First: Cc1c(C)c2c(c(C)c1Br)OCC2c1ccc(C(C)C)cc1 (stereo not given)
Second: C[C@H]1C(=O)N2[C@H](c3ccc4c(c3)OCO4)c3[nH]c4ccccc4c3C[C@@H]2C(=O)N1C
The melting point of the first is lower: 56 to 57 °C for the first, 219 to 220 °C for the second.

Compared with `CN(C)c1ccc(-c2nc3cccnc3o2)cc1`, `Nc1ncccc1OCc1ccc(Cl)cc1` is lower in melting point: 168 to 170 °C for the first, 121 to 123 °C for the second.

Compared with `O=C(Cl)c1cccnc1Oc1cccc(Cl)c1`, `CC1=C(c2ccc(OCC(C)NCC(O)c3cccc(Cl)c3)cc2)CCC(=O)N1` (stereo not given) is higher in melting point: 72 to 74 °C for the first, 99 to 104 °C for the second.

First: CCC(=O)c1c(SC)sc(C#N)c1CC
Second: CCOC(=O)C1=C(OCC)C(OCC)=NS1(=O)=O
The melting point of the first is lower: 66 to 67 °C for the first, 129 to 133 °C for the second.

First: CC1(C)CN(CC=CC(=O)Nc2cc3c(Nc4ccc(F)c(Cl)c4)ncnc3cc2OCC2CC2)CC(=O)O1
Second: COCCOc1ccc(Nc2cc(Nc3ccc(F)c(Cl)c3)ncn2)cc1
The melting point of the first is lower: 140 to 142 °C for the first, 208 to 210 °C for the second.

Compared with `c1ccc2c(Cn3cncn3)noc2c1`, `CCOP(=O)(NC(=O)c1cc(=O)c2ccccc2o1)OCC` is higher in melting point: 102 to 104 °C for the first, 182 to 183 °C for the second.

First: Cc1cc(F)ccc1-c1nc(NC2CCCCC2)nc2c1ccc(=O)n2-c1ccccc1F
Second: Cc1nc(C(=O)NN(C)C)c2n1-c1ccc(Cl)cc1C(c1ccccc1F)NC2 (stereo not given)
The melting point of the first is lower: 181 to 182 °C for the first, 218 to 219 °C for the second.

Compared with `O=C1CN2CCC1CC2`, `CCON=C(C)C1CCC(=O)CC1=O` (stereo not given) is higher in melting point: 58 °C for the first, 105 to 112 °C for the second.

First: N#Cc1nn(-c2c(Cl)cc(C(F)(F)F)cc2Cl)c(N)c1SC(F)(F)F
Second: COCCN1CCN(c2ccc(NC(=O)c3cnn(-c4ccc(Cl)cc4)c3C)cc2C#N)CC1
The melting point of the first is lower: 163 °C for the first, 207 °C for the second.

Compared with `COc1cc(N)c(Cl)cc1C(=O)NC1CCN(CCNC(=O)C(CO)c2ccccc2)CC1OC` (stereo not given), `O=C(O)C=CC(=O)NNC(=O)N1Cc2ccccc2Oc2ccc(Cl)cc21` is higher in melting point: 114 °C for the first, 171 to 172 °C for the second.

Compared with `CN(Cc1ccc(N)cc1)C1CCSCC1`, `O=S(=O)(c1ccccc1)N1CCC(C(O)(c2ccc(F)cc2)c2ccc(F)cc2)CC1` is higher in melting point: 88 to 89 °C for the first, 142 to 144 °C for the second.

First: COc1cc(OC)c2c(c1)N(C)C(c1cc(C)c(O)c(C)c1)N=C2 (stereo not given)
Second: COc1cc(OC)c(-c2nc(NC(=O)c3cc4cc(C)cc(C)c4n3CC(=O)O)sc2CCC2CCCCC2)cc1Br
The melting point of the first is lower: 188 to 189 °C for the first, 221 to 222 °C for the second.

Source: a melting point compilation (Tetko et al.; mined from patent text by program, amines drawn as free bases though some values may be those of a salt)
